Experimental data published in ChEMBL document CHEMBL6182856, “Novel one-/two-photon excited carbazole/quinolinium photosensitizers manifest nanomolar and hypoxia-resistant tumor photodynamic therapy by accelerating apoptosis, ferroptosis, and autophagy” (Eur J Med Chem, 2025).
pIC50: −log10 of the molar value. Active and inactive are the calls of the source. The rule behind the calls is not given here.

Experiments:
A549 [1] = assay: Induction of mitochondrial damage in human A549 cells assessed as increase in ratio of green to red fluorescence intensity measured upon light irradiation by JC-1 staining based fluorescence analysis relative to control; assay type: functional
[2] = Photosensitizing ability of the compound in methanol assessed as singlet oxygen production by measuring quantum yield measured upon irradiation by DPBF based assay; assay type: functional
[3] = Photosensitizing ability of the compound assessed as superoxide radical production measured upon irradiation by DHE probe based assay; assay type: functional
[4] = Photosensitizing ability of the compound assessed as superoxide radical production measured upon irradiation by electron spin resonance analysis; assay type: functional
[5] = Photosensitizing ability of the compound assessed as hydroxyl radical production measured upon irradiation by electron spin resonance analysis; assay type: functional
[6] = Phototoxicity against human A549 cells assessed as inhibition of cell growth incubated for 24 hrs measured under normoxia conditions and after two-photon excitation upon irradiation with light at 808 nm, 200 mW/cm2 for 10 mins by MTT assay; assay type: functional, cell-based; conditions: A549, light or radiation study
[7] = Phototoxicity against human A549 cells assessed as inhibition of cell growth incubated for 24 hrs measured under normoxia conditions and after one-photon excitation upon irradiation with light at 520 nm, 200 mW/cm2 for 10 mins by MTT assay; assay type: functional, cell-based; conditions: A549, light or radiation study
4T1 [8] = assay: Cytotoxicity against mouse 4T1 cells assessed as inhibition of cell growth incubated for 24 hrs measured under normoxia conditions by MTT assay; assay type: functional, cell-based; conditions: 4T1, 24 h
[9] = Cytotoxicity against human HFL1 cells assessed as inhibition of cell growth incubated for 24 hrs by MTT assay; assay type: toxicity, cell-based
[10] = Phototoxicity against human HT-29 cells assessed as inhibition of cell growth incubated for 24 hrs measured under normoxia conditions and after one-photon excitation upon irradiation with light at 520 nm, 200 mW/cm2 for 10 mins by MTT assay; assay type: functional, cell-based; conditions: HT-29, light or radiation study
[11] = Phototoxicity against mouse 4T1 cells assessed as inhibition of cell growth incubated for 24 hrs measured under normoxia conditions and after one-photon excitation upon irradiation with light at 520 nm, 200 mW/cm2 for 10 mins by MTT assay; assay type: functional, cell-based; conditions: 4T1, light or radiation study
4T1 [12] = assay: Phototherapeutic index, ratio of IC50 for cytotoxicity against mouse 4T1 cells measured under normoxia conditions to IC50 for phototoxicity against mouse 4T1 cells measured under normoxia conditions and after one-photon excitation upon irradiation with light at 520 nm, 200 mW/cm2 for 10 mins; assay type: functional
A549 [13] = assay: Cytotoxicity against human A549 cells assessed as inhibition of cell growth incubated for 24 hrs measured under hypoxia conditions by MTT assay; assay type: functional, cell-based; conditions: A549, 24 h
[14] = Phototoxicity against human A549 cells assessed as inhibition of cell growth incubated for 24 hrs measured under hypoxia conditions and after one-photon excitation upon irradiation with light at 520 nm, 200 mW/cm2 for 10 mins by MTT assay; assay type: functional, cell-based; conditions: A549, light or radiation study
[15] = Phototoxicity against human A549 cells assessed as inhibition of cell growth incubated for 24 hrs measured under hypoxia conditions and after two-photon excitation upon irradiation with light at 808 nm, 200 mW/cm2 for 10 mins by MTT assay; assay type: functional, cell-based; conditions: A549, light or radiation study
[16] = Selectivity index, ratio of IC50 for cytotoxicity against human HFL1 cells measured under normoxia conditions to IC50 for phototoxicity against human A549 cells measured under normoxia conditions and after one-photon excitation upon irradiation with light at 520 nm, 200 mW/cm2 for 10 mins; assay type: toxicity, cell-based; conditions: HFL1 cells versus A549 cells, read-out: Ratio IC50
[17] = Selectivity index, ratio of IC50 for cytotoxicity against human HFL1 cells measured under normoxia conditions to IC50 for cytotoxicity against human A549 cells measured under normoxia conditions; assay type: toxicity, cell-based; conditions: HFL1 cells versus A549 cells, read-out: Ratio IC50
A549 [18] = assay: Induction of ROS generation in human A549 cells assessed as intracellular ROS level measured under normoxia conditions by DCFH-DA staining based fluorescence analysis; assay type: functional, cell-based
A549 [19] = assay: Photosensitizing ability of the compound in human A549 cells assessed as increase in intracellular ROS generation by measuring increase in fluorescence intensity measured upon light irradiation under normoxia conditions by DCFH-DA staining based fluorescence analysis relative to FLI in cells without irradiation; assay type: functional
A549 [20] = assay: Induction of mitochondrial damage in human A549 cells assessed as increase in green fluorescence intensity measured upon light irradiation by JC-1 staining based fluorescence analysis; assay type: functional, cell-based
A549 [21] = assay: Induction of apoptosis in human A549 cells assessed as late apoptotic cells measured under dark conditions by AnnexinV-FITC/PI staining based flow cytometric analysis (reference value: 0.17%); assay type: functional
A549 [22] = assay: Induction of apoptosis in human A549 cells assessed as late apoptotic cells measured upon light irradiation by AnnexinV-FITC/PI staining based flow cytometric analysis (reference value: 0.15%); assay type: functional
A549 [23] = assay: Induction of apoptosis in human A549 cells assessed as necrotic cells measured upon light irradiation by AnnexinV-FITC/PI staining based flow cytometric analysis (reference value: 1.04%); assay type: functional
A549 [24] = assay: Induction of DNA damage in human A549 cells assessed as increase in gammaH2AX expression measured upon light irradiation by western blot analysis relative to control; assay type: functional
A549 [25] = assay: Induction of ferroptosis in human A549 cells assessed as increase in lipid peroxidation by measuring decrease in GPX4 protein expression measured upon irradiation by western blot analysis relative to control; assay type: functional
A549 [26] = assay: Induction of ferroptosis in human A549 cells assessed as increase in lipid peroxidation by measuring reduction in red fluorescence of the reduced state measured upon irradiation by BODIPY 581/591C11 probe based confocal imaging analysis; assay type: functional, cell-based
A549 [27] = assay: Induction of ferroptosis in human A549 cells assessed as increase in lipid peroxidation by measuring increase in green-to-red fluorescence ratio measured upon irradiation by BODIPY 581/591C11 probe based confocal imaging analysis relative to control; assay type: functional
A549 [28] = assay: Induction of autophagy in human A549 cells assessed as large circular vesicles engulfing small particles measured upon light irradiation by transmission electron microscopy; assay type: functional, cell-based
A549 [29] = assay: Induction of autophagy in human A549 cells assessed as increase in Beclin-I expression measured upon light irradiation by western blot analysis relative to control; assay type: functional
A549 [30] = assay: In vivo photodynamic therapy based antitumor activity against human A549 cells xenografted in mouse assessed as tumor growth inhibition administered intratumorally followed by exposure to light on day 0 and 7 and measured on day 15; assay type: functional; conditions: route it(Intratumoral); time 15 day
[31] = Toxicity against mouse xenografted with human A549 cells assessed as changes in body weight administered intratumorally followed by exposure to light on day 0 and 7 and measured for 15 days; conditions: in vivo, other, 360 h, route it(Intratumoral), time 15 day
[32] = Photosensitizing ability of the compound in methanol assessed as singlet oxygen production by measuring quantum yield upon irradiation by DPBF based assay relative to KNKQ; assay type: functional
[33] = Photosensitizing ability of the compound assessed as hydroxyl radical production upon irradiation by HPF probe based assay relative to control; assay type: functional
[34] = Photosensitizing ability of the compound assessed as hydroxyl radical production upon irradiation by HPF probe based assay relative to KNKQ; assay type: functional
A549 [35] = assay: Induction of apoptosis in human A549 cells measured upon light irradiation by AnnexinV-FITC/PI staining based flow cytometric analysis relative to RuB; assay type: functional

CCn1c2ccc(/C=C/c3cc[n+](C)c4ccccc34)cc2c2cc(N(c3ccccc3)c3ccccc3)ccc21.[I-]
fold change (FC) (A549 [1]): ~100 | Activity [2]: 0.38 | Activity [3]: Active | Activity [4]: Active | Activity [5]: Active | pIC50 [6]: 6.89 | pIC50 [7]: 7.57 | pIC50 (4T1 [8]): 5.97 | IC50 at 24 h [9]: 8910 nM | pIC50 [10]: 7.54 | pIC50 [11]: 7.29 | Ratio IC50 (4T1 [12]): 21 | pIC50 (A549 [13]): 5.71 | pIC50 [14]: 7.37 | pIC50 [15]: 6.70 | selectivity ratio at 10 min [16]: 330 | selectivity ratio [17]: 6 | Activity (A549 [18]): inactive | fold change (FC) (A549 [19]): 4 | Activity (A549 [20]): Active | Activity (A549 [21]): 30.7% | Activity (A549 [22]): 87.8% | Activity (A549 [23]): 2.56% | fold change (FC) (A549 [24]): 4 | fold change (FC) (A549 [25]): 3.3 | Activity (A549 [26]): Active | fold change (FC) (A549 [27]): 24 | Activity (A549 [28]): Active | fold change (FC) (A549 [29]): 2 | TGI (A549 [30]): 90.7% | Activity [31]: Non-toxic | fold change (FC) [32]: 3 | fold change (FC) [33]: 60 | fold change (FC) [34]: 3 | fold change (FC) (A549 [35]): 14
